Reference: patent publication US20040039157A1, “Anti-angiogenic peptides” (priority 2000, published 2004)

Experiments:
CT26 tumours = experiment: In vivo efficacy on growth of subcutaneous CT26 tumours; parameters: species or system Balb/c mice; settings: daily ip α1-24, p<0.001
Protocol: Experiments were performed on six-week-old Balb/C mice weighing 15 g, obtained from Sheffield Field Laboratories. All experiments were approved by the Home Office Project Licence Number PPL50/1414.
The CT26 cell line was maintained by in vitro passage in Dulbecco's Minimal Eagles Medium containing 10% foetal calf serum, and 1% penicillin and streptomycin and maintained at 37° C. in humidified atmosphere of 5% CO2 in air. The cell line was routinely checked to ensure freedom from mycoplasma (Mycoplasma rapid detection system, Gena-Probe Incorporated, U.S.A.).
Animals were anaesthetised with an intraperitoneal injection of diazepam (0.5 mg/ml, Dumex Ltd.) and hypnorm (fentanyl citrate 0.0315 mg/ml and fluanisone 1 mg/ml, Janssen Pharmaceutical Ltd.) in the ratio of 1:1 at a volume of 0.1 ml/200 g body weight, with supplementation as required to maintain adequate anaesthesia. […] Tumour growth and animal weights were monitored daily.
Tumour growth was measured daily and when the majority of animals in the cohort had tumour volumes of >100 mm^3 but <350 mm^3 animals were divided into experimental and control groups. […]
Tumour volumes were assessed by calliper measurements of the perpendicular diameters and volumes estimated using the equation: […]
where a is the smaller and b the larger diameter Animals were weighed on a daily basis and the general well being monitored.

SVEC4-10 cells = experiment: Tubule formation assay on GF-reduced Matrigel, SVEC4-10 cells; type: cell-based, Murine; settings: FIG. 4, 6 h
Protocol: Adult human dermal microvascular endothelial cells (HuDMECs) were obtained commercially (TCS Biologicals, Buckinghamshire, United Kingdom) and cultured in microvascular endothelial cell growth medium (EGM). This medium contains heparin (10 ng/ml), hydrocortisone, human epidermal growth factor (10 ng/ml), human fibroblast growth factor (10 ng/ml) (such endothelial growth factors are necessary for routine passaging of HuDMECs in culture) and dibutyryl cyclic AMP. This was supplemented with 5% heat-inactivated FCS, 50 μg/ml gentamicin and 50 ng/ml amphotericin B (TCS Biologicals, United Kingdom). Murine endothelial cells (SVEC 4-10) were obtained from the ATCC and cultured in DMEM+10% FCS. Cells were grown at 37° C. in a 100% humidified incubator with a gas phase of 5% CO2 and routinely screened for Mycoplasma. Prior to their use in the assays indicated below, HuDMECs were grown to 80% confluency, incubated in DMEM+1% FCS for 2 h, then harvested with 0.05% trypsin solution, washed twice and resuspended to the cell density required for each assay (see below).
24 well plates were coated with 30 μl/well of growth factor-reduced (GF-reduced) Matrigel (Becton Dickinson Labware, Bedford, Mass.). […] Tubule formation was assessed by counting the number of tubule branches and the total area covered by tubules in each field of view using image analysis software supplied by Scion Image.

ADSGEGDFLAEGGGVRGPRVVERH (ADSGEGDFLAEGGGVRGPRVVERH) [α1-24, 24 amino acid peptide from the amino terminus of the fibrinogen α chain]
final tumour volume (CT26 tumours; Example 1, day 14, starting volume 235±30, vehicle control final 2245±371): 1341±145 mm^3 | final tumour volume (CT26 tumours; Example 2, day 12, starting volume 338±39, vehicle control final 3072±255): 2029±504 mm^3 | tubule formation (area covered by tubules) (SVEC4-10 cells; absence of growth factors): significantly (p<0.03) reduced tubule formation | tubule formation (area covered by tubules) (SVEC4-10 cells; presence of growth factors (VEGF 10 ng/ml or bFGF 10 ng/ml)): significantly (p<0.03) reduced tubule formation
